From patent publication US20030060469A1, “Use of substances that act as cascade inhibitors of the raf/mek/erk signal cascade, for producing a medicament to treat dna and rna viruses” (priority 2000, published 2003)
Like-named read-outs stand apart in the source and are kept apart here.

What was measured:
[1] = mouse model; oral administration; up to a cumulating dose of 6 g/kg body weight; cited from earlier work
[2] = system: influenza A virus stem WSN-HK
MDCK cells = conditions: concentrations corresponding to the infection test (up to 50 μM), macroscopic examination and propidium iodide staining
[3] = system: Borna disease virus (BDV)

SMILES: O=C(NOCC1CC1)c1ccc(F)c(F)c1Nc1ccc(I)cc1Cl [PD184352, 2-(2-chloro-4-iodo-phenylamino)-N-cyclopropyl-methoxy-3,4-difluoro-benzamide]
- signs of toxicity [1]: without showing any significant signs of toxicity

SMILES: N#CC(=C(N)Sc1ccccc1N)C(C#N)=C(N)Sc1ccccc1N [U0126, 1,4-diamino-2,3-dicyano-1,4-bis[2-aminophenylthio]butadiene]
- reduction of the number of newly generated infectious virus particles in the cell culture medium [2]: approx. 80%
- cytotoxic effect on the cells (MDCK cells): neither solvent nor inhibitor have a significant cytotoxic effect on the cells
- virus foci (spreading of BDV infection) ([3]; administration of 6 μM, compared to untreated infectious reference cells): no difference of the virus foci
- virus foci (spreading of BDV infection) ([3]; administration of 12.5 μM): the effect is not clear anymore
- virus foci (spreading of BDV infection) ([3]; one-time administration of 25 μM, cultivation time of 7 days): no virus foci are visible
